Measured values reported in the supplement of paper PMC8671470.

Assays:
Conditions in all cases: 72 h
MV4-11 [1] = tested on: MV4-11
Outline: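 In 384-well plates holding acoustically pre-printed compounds at five tenfold doses from 1 to 10,000 nM, in duplicate, fifteen myeloid leukaemia cell lines were grown in RPMI 1640 for 72 h at 37 °C with 5% CO2. Luminescent ATP viability was scaled between vehicle and a positive control at 10 µM. The IC50 was then taken from log-logistic dose–response fits with four parameters.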

HL-60 [2] = test: cell viability (% survival relative to DMSO control); higher = less cytotoxic
Outline: (§1)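 In 384-well plates, the full library was rescreened in duplicate on HL-60 cells in RPMI 1640 with 10% FBS, at 1–10,000 nM in five tenfold concentrations, for 72 h at 37 °C, 5% CO2. Each run also held DMSO or 100 nM of one of three metabolic inhibitors. Viability was measured by CellTiter-Glo and normalised to DMSO wells and to wells with proteasome inhibitor, present at 10 μM. Any area under the curve comes from four-parameter log-logistic fitting with drc and PharmacoGx.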

BV-173 = test: cell viability (% survival relative to DMSO control, bortezomib = 0%); higher = less cytotoxic
Outline: (§2)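 Reported values are percent survival from duplicate wells, averaged. Fifteen myeloid leukaemia cell lines were treated in 384-well plates with compounds at 1, 10, 100, 1000 or 10000 nM for 72 h at 37 °C in 5% CO2. Signals from CellTiter-Glo luminescence were scaled with vehicle as 100% and a 10 µM positive control as 0%.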

HEL = test: as above
Outline: as §2

HL-60 [3] = test: as above
Outline: as §2

K-562 = test: as above
Outline: as §2

KCL-22 = test: as above
Outline: as §2

KG-1 = test: as above
Outline: as §2

KU-812 = test: as above
Outline: as §2

LAMA-84 = test: as above
Outline: as §2

ML-2 = test: as above
Outline: as §2

MOLM-13 = test: as above
Outline: as §2

MV4-11 [4] = test: as above
Outline: as §2

Mono-Mac-6 = test: as above
Outline: as §2

NOMO-1 = test: as above
Outline: as §2

SHI-1 = test: as above
Outline: as §2

THP-1 = test: as above
Outline: as §2

HL-60 [5] = test: area under dose-response curve (viability, 1 nM-10 uM) (fraction (0-1)); higher = more sensitive
Outline: as §1

Oc1ncc(F)c(O)n1 [5-fluorouracil]
Conditions | IC50 (cell viability) [nM]
MV4-11 [1] | 435

cell viability [%], HL-60 [2]
Conditions | 0.001 µM | 0.01 µM | 0.1 µM | 1 µM | 10 µM
co-treatment: AZD3965 100 nM | 97.8 | 98.3 | 102 | 102.9 | 55
co-treatment: DMSO vehicle | 101.99 | 97.89 | 98.8 | 102 | 76.1
co-treatment: GSK2194069 100 nM | 99.6 | 104 | 99 | 100 | 75.9
co-treatment: pictilisib 100 nM | 102 | 75.9 | 113 | 96.5 | 68.7

Conditions | area under dose-response curve, co-treatment: AZD3965 100 nM | area under dose-response curve, co-treatment: DMSO vehicle | area under dose-response curve, co-treatment: GSK2194069 100 nM | area under dose-response curve, co-treatment: pictilisib 100 nM | cell viability, 1 nM [%] | cell viability, 10 nM [%] | cell viability, 100 nM [%] | cell viability, 1000 nM [%] | cell viability, 10000 nM [%]
BV-173 | – | – | – | – | 99 | 110 | 85.6 | 86.4 | 16.3
HEL | – | – | – | – | 95.1 | 104 | 84.2 | 73.8 | 31.8
HL-60 [3] | – | – | – | – | 113 | 120 | 138 | 61.2 | 27.1
HL-60 [5] | < 0.0301 | < 0.0301 | < 0.0301 | < 0.0301 | – | – | – | – | –
K-562 | – | – | – | – | 101 | 114 | 91.5 | 108 | 68.9
KCL-22 | – | – | – | – | 98.9 | 120 | 98.3 | 84.3 | 30.6
KG-1 | – | – | – | – | 101 | 114 | 85.8 | 83.5 | 46.2
KU-812 | – | – | – | – | 97.6 | 100 | 88.4 | 88 | 66.6
LAMA-84 | – | – | – | – | 91.1 | 98.5 | 99.8 | 86.9 | 48.8
ML-2 | – | – | – | – | 93 | 99.4 | 102 | 78.9 | 29.5
MOLM-13 | – | – | – | – | 128 | 109 | 82.2 | 22.4 | 2.01
MV4-11 [4] | – | – | – | – | 96 | 111 | 85 | 26.3 | 1.31
Mono-Mac-6 | – | – | – | – | 95.4 | 95.5 | 88.4 | 47.9 | 19.3
NOMO-1 | – | – | – | – | 92.2 | 105 | 95.1 | 68.5 | 61.9
SHI-1 | – | – | – | – | 91.6 | 110 | 102 | 70.9 | 44.6
THP-1 | – | – | – | – | 101 | 111 | 99.3 | 97.8 | 63.3
